Source: patent US20130018062A1, “Pain therapy with metabolism blocked antifolates” (priority 2011, published 2013)

What was measured:
[1] = system: patients with Rheumatoid Arthritis; test: Pain assessment by VAS scale in patients treated with M-Trex (Example-1); type: in vivo, human
Source text: Of special importance was the novel observation of the ability of M-Trex to substantially reduce Pain in human subjects who were suffering from inflammation caused by autoimmune response. [O. Castaneda and M. G. Nair. Controlled trial of methotrexate versus CH-1504 in the treatment of Rheumatoid Arthritis. The J. Rheumatology. 33, 862-64, 2006.] […] Another unique observation with M-Trex was its ability to shrink human tumor xenografts in immuno-compromised mice. The ability of metabolism blocked antifolate M-Trex to shrink rapidly proliferating human tissues is representative and results in Pain reduction secondary to such proliferation. [EXAMPLE-1]** ** Pain assessment was made using the VAS scale every four weeks. Patients were treated with a daily oral dose of 7.5 mg/day of M-Trex during the duration of measurements. […] Pain as assessed by VAS was reduced from a scale of 7.2 to 1.8.
There are three general accepted methods for the evaluation of Pain in patients suffering from a number of diseases. They are Visual Analog Scale (VAS); Numeric rating Scale (NRS) and Verbal Categorical Rating Scale […]. Of these three assessment methods VAS is considered to be most reliable in a majority of cases to evaluate and quantify the magnitude of the perception of Pain. […]

[2] = Laboratory values (toxicity) of Rheumatoid Arthritis patients on M-Trex; type: in vivo, human; conditions: M-Trex 7.5 mg per day; for CREATININE / GLUCOSE / SGOT / ALK. PHOSPHAT / SGTP / HEMOGLOB: RA patients; for ALK. PHOSPHAT / SGTP: in U/L (unit assumed); for HEMOGLOB: in g/dL (unit assumed)
C-Reactive Protein (CRP) = test: Plasma CRP levels of patients on therapy with M-Trex for Rheumatoid Arthritis (Example-2); type: in vivo, human; conditions: arthritic patients taking M-Trex, clinical study by Castaneda and Nair
Source text: Coronary Heart Disease (CHD), Cardio-vascular diseases (CVD) and Stroke are of the same generic species by virtue of Inflammation being the common underlying cause of their occurrence. In fact an article by the American Heart Association entitled “Inflammation, Heart Disease and Stroke. The role of C-Reactive Protein” stressed that markers of Inflammation are more accurate and reliable predictive factors than total cholesterol levels in humans. [www.americanheart.org/presenter.jhtml?presenter=4648]. The most accurate predictive factor for the incidence of CHD, CVD and stroke is elevated levels of C-Reactive Protein (CRP).

[3] = system: patients with Rheumatoid Arthritis; test: Morning stiffness and swollen joints in patients with Rheumatoid Arthritis treated with M-Trex (Example-6); type: in vivo, human
Source text: MS (Morning Stiffness); S. Joints (Swollen Joints) were remarkably responsive to M-Trex therapy. Stiffness exacerbates Pain especially in joints by virtue of inflexibility and reduction is blood circulation. Swelling of joints is secondary to inflammation caused by autoimmune response in patients with Rheumatoid Arthritis. […] The initial numbers represents the values at the start of the study before the treatment and the remaining four numbers are values determined during each visit while taking M-Trex medication.
In joints stiffness (duration measured in minutes as above) is caused by inflammation of the synovium that lines the joint. Inflammation due to bone spurs as in Oesteo-arthritis causes Pain. Thus reduction of stiffness reduces the severity of inflammation and Pain. Abnormal tissue growth characterized by benign and malignant neoplasms cause stiffness due to compression of tissues, interfering with blood flow and irritation of the autonomic nervous system. Metabolism blocked antifolates are shown to be capable of decompression of tissues by interfering with tissue growth as shown in Examples 4, 5 and 6. These examples establish that metabolism blocked antifolates can decompress cancer tissues and ameliorate cancer pain.

K562 (Leukemia) = test: Growth inhibition of human tumor cells in culture (NCI); type: cell-based; conditions: logarithmic value
Source text: (§1) The preceding data collected at the National Cancer Institute summarize the ability of M-Trex to inhibit 50% of the growth of selected tumor cells in culture. The values are expressed as Log10 GI50 values all of which are lower than 10^−8M. In the same table a comparison is made of the respective values of TGI (Total Growth Inhibition) for M-Trex and MTX. […] In addition, the Log10 GI50 values of M-Trex was lower than −8.00 for the following cell lines: NSCLC, A549/ATCC and NCI H23; Colon Cancer, HCT 116, HCT 29 and SW 620; CNS Cancer, SF 268; Melanoma M 14 and UACC 62; Ovarian Cancer, OVCAR-8; Renal Cancer, ACHN, CAKI-1, SN 12C, and UO 31; Prostate Cancer, PC 3 and Breast cancer, MDA-MB-435 and MDA-N. The MG_MID value of MTX for all 49 human tumor cell lines evaluated at NCI-DTP program was −7.05. […] The tumors and sarcomas are solid while leukemia and lymphoma are liquid tumors.

MDA-N (Breast cancer) = test: as above; type: cell-based
Source text: as §1

SW 620 (Colon Cancer) = test: as above; type: cell-based
Source text: as §1

[4] = first visit while taking M-Trex
[5] = fourth visit while taking M-Trex
[6] = second visit while taking M-Trex
[7] = start of the study before the treatment
[8] = third visit while taking M-Trex

C=C(CC(NC(=O)c1ccc(CCc2ccc3nc(N)nc(N)c3c2)cc1)C(=O)O)C(=O)O (centres unmarked) [M-Trex, 4′-methylene-5,8-10-trideazaaminopterin]
Pain as assessed by VAS ([1]; starting value from which pain was reduced, Rheumatoid Arthritis patients): 7.2
Pain as assessed by VAS ([1]; value reached on daily oral dose of 7.5 mg/day of M-Trex, assessed every four weeks): 1.8
CREATININE ([2]; VISIT 2): 0.79 mg/dL
GLUCOSE ([2]; VISIT 2): 83.8 mg/dL
SGOT ([2]; VISIT 2): 14.6 U/L
ALK. PHOSPHAT ([2]; VISIT 2): 107.75
SGTP ([2]; VISIT 2): 17.75
HEMOGLOB ([2]; VISIT 2): 11.77
CREATININE ([2]; VISIT 3): 0.95 mg/dL
GLUCOSE ([2]; VISIT 3): 95 mg/dL
SGOT ([2]; VISIT 3): 16 U/L
ALK. PHOSPHAT ([2]; VISIT 3): 86
SGTP ([2]; VISIT 3): 17
HEMOGLOB ([2]; VISIT 3): 12.43
CREATININE ([2]; VISIT 4): 0.85 mg/dL
GLUCOSE ([2]; VISIT 4): 87.5 mg/dL
SGOT ([2]; VISIT 4): 16 U/L
ALK. PHOSPHAT ([2]; VISIT 4): 89.3
SGTP ([2]; VISIT 4): 25
HEMOGLOB ([2]; VISIT 4): 12.18
CREATININE ([2]; VISIT 5): 0.85 mg/dL
GLUCOSE ([2]; VISIT 5): 88.1 mg/dL
SGOT ([2]; VISIT 5): 17.3 U/L
ALK. PHOSPHAT ([2]; VISIT 5): 87.1
SGTP ([2]; VISIT 5): 20
HEMOGLOB ([2]; VISIT 5): 12.26
CREATININE ([2]; VISIT 6): 0.92 mg/dL
GLUCOSE ([2]; VISIT 6): 92.4 mg/dL
SGOT ([2]; VISIT 6): 14.9 U/L
ALK. PHOSPHAT ([2]; VISIT 6): 85.42
SGTP ([2]; VISIT 6): 18.21
HEMOGLOB ([2]; VISIT 6): 12.56
CREATININE ([2]; VISIT 7): 0.84 mg/dL
GLUCOSE ([2]; VISIT 7): 90.3 mg/dL
SGOT ([2]; VISIT 7): 15.2 U/L
ALK. PHOSPHAT ([2]; VISIT 7): 86.5
SGTP ([2]; VISIT 7): 18
HEMOGLOB ([2]; VISIT 7): 12.48
Toxicity according to laboratory values ([2]; patients with Rheumatoid Arthritis): not associated with any measurable toxicity
Change of CRP levels (in words) (C-Reactive Protein (CRP)): significant and consistent reduction
MS (Morning Stiffness), duration [3, 4]: 26′ minutes
S. Joints (number of Swollen Joints) [3, 4]: 5.6
MS (Morning Stiffness), duration [3, 5]: 14′ minutes
S. Joints (number of Swollen Joints) [3, 5]: 2.9
MS (Morning Stiffness), duration [3, 6]: 22′ minutes
S. Joints (number of Swollen Joints) [3, 6]: 3.5
MS (Morning Stiffness), duration [3, 7]: 99′ minutes
S. Joints (number of Swollen Joints) [3, 7]: 12.5
MS (Morning Stiffness), duration [3, 8]: 20′ minutes
S. Joints (number of Swollen Joints) [3, 8]: 3.0
TGI (Total Growth Inhibition) (K562 (Leukemia)): <−8.00
Log10 GI50 (MDA-N (Breast cancer)): lower than −8.00
Log10 GI50 (SW 620 (Colon Cancer)): lower than −8.00
